Assay results published in patent publication US12091425B2 (AMGEN INC., priority 2016, dated 2024).

What was measured:
[1] = molecular target: T1, Mcl-1/Bim interaction, recombinant human Mcl-1 (171-327) (Homo sapiens, UniProt Q07820); assay: Cell free Mcl-1: Bim Affinity Assay (Mcl-1 HTRF); assay type: binding; conditions: TR-FRET, 0.1 nM Mcl-1 (171-327), 0.05 nM biotin-Bim (51-76)
T1 construct: made in house
Outline: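 Read-out is time-resolved FRET after overnight incubation, using a biotin-labelled peptide from human Bim (51-76) as the binding partner; IC50 was derived from competition curves.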

[2] = tested on: OPM-2 human multiple myeloma cell line; assay: Cell Viability Assay (OPM-2 10 FBS); assay type: cell-based; conditions: OPM-2 cells, 16 h incubation, CellTiter-Glo
Outline: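 ATP-based luminescence (CellTiter-Glo) measured after a 16 h compound treatment of OPM-2 cells seeded at 3000 cells/well in 10% FBS medium. IC50 values derived by 4-parameter logistic fitting of serial dilutions.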

T1 sequence (Q07820 171-327): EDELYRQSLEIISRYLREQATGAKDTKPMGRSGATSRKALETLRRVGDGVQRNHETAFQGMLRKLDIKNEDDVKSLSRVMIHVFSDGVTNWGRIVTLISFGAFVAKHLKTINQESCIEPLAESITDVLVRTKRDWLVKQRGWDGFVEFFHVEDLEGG

| SMILES | IC50 [1] [nM] | IC50 ([2]; Homo sapiens, OPM-2, 16 h) [nM] | IC50 [2] [nM] |
| --- | --- | --- | --- |
| CC[C@@H]1CC/C=C/[C@H](OCc2nccs2)[C@@H]2CC[C@H]2CN2C[C@@]3(CCCc4cc(Cl)ccc43)COc3ccc(cc32)C(=O)NS1(=O)=O [Example 990, (1S,3′R,6′R,7′S,8′E,12′R)-6-chloro-12′-ethyl-7′-(1,3-thiazol-2-ylmethoxy)-3,4-dihydro-2H,15′H-spiro[naphthalene-1,22′-[20]oxa[13]thia[1,14]diazatetracyclo[14.7.2.0^3,6.0^19,24]pentacosa [8,16,18,24]tetraen]-15′-one 13′,13′-dioxide] | 3.08 | 2230 | – |
| CC[C@@H]1CC/C=C/[C@H](OCC(=O)O)[C@@H]2CC[C@H]2CN2C[C@@]3(CCCc4cc(Cl)ccc43)COc3ccc(cc32)C(=O)NS1(=O)=O [Example 992, (((1S,3′R,6′R,7′S,8′E,12′R)-6-chloro-12′-ethyl-13′,13′-dioxido-15′-oxo-3,4-dihydro-2H-spiro[naphthalene-1,22′-[20]oxa[13]thia[1,14]diazatetracyclo[14.7.2.0^3,6.0^19,24]pentacosa [8,16,18,24]tetraen]-7′-yl)oxy)acetic Acid] | 0.103 | 2340 | – |
| CC[C@@H]1CCCC[C@H](OCC(=O)OC)[C@@H]2CC[C@H]2CN2C[C@@]3(CCCc4cc(Cl)ccc43)COc3ccc(cc32)C(=O)NS1(=O)=O [Example 993, methyl (((1S,3′R,6′R,7′S,12′R)-6-chloro-12′-ethyl-13′,13′-dioxido-15′-oxo-3,4-dihydro-2H-spiro[naphthalene-1,22′-[20]oxa[13]thia[1,14]diazatetracyclo[14.7.2.0^3,6.0^19,24]pentacosa [16,18,24]trien]-7′-yl)oxy)acetate] | 2.01 | 373 | – |
| CC[C@@H]1CC/C=C/[C@H](OCC(=O)NCCN(C)C)[C@@H]2CC[C@H]2CN2C[C@@]3(CCCc4cc(Cl)ccc43)COc3ccc(cc32)C(=O)NS1(=O)=O [Example 995, 2-(((1S,3′R,6′R,7′S,8′E,12′R)-6-chloro-12′-ethyl-13′,13′-dioxido-15′-oxo-3,4-dihydro-2H-spiro[naphthalene-1,22′-[20]oxa[13]thia[1,14]diazatetracyclo[14.7.2.0^3,6.0^19,24]pentacosa [8,16,18,24]tetraen]-7′-yl)oxy)-N-(2-(dimethylamino)ethyl)acetamide] | 0.872 | 1680 | – |
| CC[C@@H]1CC/C=C/[C@H](OCC(=O)NCCO)[C@@H]2CC[C@H]2CN2C[C@@]3(CCCc4cc(Cl)ccc43)COc3ccc(cc32)C(=O)NS1(=O)=O [Example 996, 2-(((1S,3′R,6′R,7′S,8′E,12′R)-6-chloro-12′-ethyl-13′,13′-dioxido-15′-oxo-3,4-dihydro-2H-spiro[naphthalene-1,22′-[20]oxa[13]thia[1,14]diazatetracyclo[14.7.2.0^3,6.0^19,24]pentacosa [8,16,18,24]tetraen]-7′-yl)oxy)-N-(2-hydroxyethyl)acetamide] | 0.487 | 8190 | – |
| CC[C@@H]1CC/C=C/[C@H](OCC(=O)N2CCC2)[C@@H]2CC[C@H]2CN2C[C@@]3(CCCc4cc(Cl)ccc43)COc3ccc(cc32)C(=O)NS1(=O)=O [Example 997, (1S,3′R,6′R,7′S,8′E,12′R)-7′-(2-(1-azetidinyl)-2-oxoethoxy)-6-chloro-12′-ethyl-3,4-dihydro-2H,15′H-spiro[naphthalene-1,22′-[20]oxa[13]thia[1,14]diazatetracyclo[14.7.2.0^3,6.0^19,24]pentacosa [8,16,18,24]tetraen]-15′-one 13′,13′-dioxide] | 0.336 | 962 | – |
| CC[C@@H]1CC/C=C/[C@H](OCC(=O)NCCOC)[C@@H]2CC[C@H]2CN2C[C@@]3(CCCc4cc(Cl)ccc43)COc3ccc(cc32)C(=O)NS1(=O)=O [Example 1001, 2-(((1S,3′R,6′R,7′S,8′E,12′R)-6-chloro-12′-ethyl-13′,13′-dioxido-15′-oxo-3,4-dihydro-2H-spiro[naphthalene-1,22′-[20]oxa[13]thia[1,14]diazatetracyclo[14.7.2.0^3,6.0^19,24]pentacosa [8,16,18,24]tetraen]-7′-yl)oxy)-N-(2-methoxyethyl)acetamide] | 0.573 | 861 | – |
| CC[C@@H]1CC/C=C/[C@H](OCC(=O)NCCN2CCOCC2)[C@@H]2CC[C@H]2CN2C[C@@]3(CCCc4cc(Cl)ccc43)COc3ccc(cc32)C(=O)NS1(=O)=O [Example 1002, 2-(((1S,3′R,6′R,7′S,8′E,12′R)-6-chloro-12′-ethyl-13′,13′-dioxido-15′-oxo-3,4-dihydro-2H-spiro[naphthalene-1,22′-[20]oxa[13]thia[1,14]diazatetracyclo[14.7.2.0^3,6.0^19,24]pentacosa [8,16,18,24]tetraen]-7′-yl)oxy)-N-(2-(4-morpholinyl)ethyl)acetamide] | 0.448 | 1220 | – |
| CCOC(=O)CO[C@H]1/C=C/CC[C@@H](CC)S(=O)(=O)NC(=O)c2ccc3c(c2)N(C[C@@H]2CC[C@H]21)C[C@@]1(CCCc2cc(Cl)ccc21)CO3 [Example 1003, ethyl (((1S,3′R,6′R,7′S,8′E,12′R)-6-chloro-12′-ethyl-13′,13′-dioxido-15′-oxo-3,4-dihydro-2H-spiro[naphthalene-1,22′-[20]oxa[13]thia[1,14]diazatetracyclo[14.7.2.0^3,6.0^19,24]pentacosa [8,16,18,24]tetraen]-7′-yl)oxy)acetate] | 0.844 | 273 | – |
| CC[C@@H]1CC/C=C/[C@H](O[C@H](C)C(=O)O)[C@@H]2CC[C@H]2CN2C[C@@]3(CCCc4cc(Cl)ccc43)COc3ccc(cc32)C(=O)NS1(=O)=O [Example 1005] | 0.157 | – | 4110 |
| CC[C@@H]1CC/C=C/[C@H](OCCC(=O)O)[C@@H]2CC[C@H]2CN2C[C@@]3(CCCc4cc(Cl)ccc43)COc3ccc(cc32)C(=O)NS1(=O)=O [Example 1008, 3-(((1S,3′R,6′R,7′S,8′E,12′R)-6-chloro-12′-ethyl-13′,13′-dioxido-15′-oxo-3,4-dihydro-2H-spiro[naphthalene-1,22′-[20]oxa[13]thia[1,14]diazatetracyclo[14.7.2.0^3,6.0^19,24]pentacosa [8,16,18,24]tetraen]-7′-yl)oxy)propanoic Acid] | 0.232 | 5590 | – |
| CCOC(=O)CCO[C@H]1/C=C/CC[C@@H](CC)S(=O)(=O)NC(=O)c2ccc3c(c2)N(C[C@@H]2CC[C@H]21)C[C@@]1(CCCc2cc(Cl)ccc21)CO3 [Example 1009, ethyl 3-(((1S,3′R,6′R,7′S,8′E,12′R)-6-chloro-12′-ethyl-13′,13′-dioxido-15′-oxo-3,4-dihydro-2H-spiro[naphthalene-1,22′-[20]oxa[13]thia[1,14]diazatetracyclo[14.7.2.0^3,6.0^19,24]pentacosa [8,16,18,24]tetraen]-7′-yl)oxy)propanoate] | 1.23 | 702 | – |
| CC[C@@H]1CC/C=C/[C@H](OCCC(=O)N(C)C)[C@@H]2CC[C@H]2CN2C[C@@]3(CCCc4cc(Cl)ccc43)COc3ccc(cc32)C(=O)NS1(=O)=O [Example 1010, 3-(((1S,3′R,6′R,7′S,8′E,12′R)-6-chloro-12′-ethyl-13′,13′-dioxido-15′-oxo-3,4-dihydro-2H-spiro[naphthalene-1,22′-[20]oxa[13]thia[1,14]diazatetracyclo[14.7.2.0^3,6.0^19,24]pentacosa [8,16,18,24]tetraen]-7′-yl)oxy)-N,N-dimethylpropanamide] | 0.377 | 298 | – |
| CC[C@@H]1CC/C=C/[C@H](OCCC(=O)N2CCOCC2)[C@@H]2CC[C@H]2CN2C[C@@]3(CCCc4cc(Cl)ccc43)COc3ccc(cc32)C(=O)NS1(=O)=O [Example 1011, (1S,3′R,6′R,7′S,8′E,12′R)-6-chloro-12′-ethyl-7′-(3-(4-morpholinyl)-3-oxopropoxy)-3,4-dihydro-2H,15′H-spiro[naphthalene-1,22′-[20]oxa[13]thia[1,14]diazatetracyclo[14.7.2.0^3,6.0^19,24]pentacosa [8,16,18,24]tetraen]-15′-one 13′,13′-dioxide] | 0.347 | 524 | – |
| C[C@@H]1C[C@@H](C)/C=C/[C@H](O)[C@@H]2CC[C@H]2CN2C[C@@]3(CCCc4cc(Cl)ccc43)COc3ccc(cc32)C(=O)NS1(=O)=O [Example 1014, (1S,3′R,6′R,7′S,8′E,10′R,12′R)-6-chloro-7′-hydroxy-10′,12′-dimethyl-3,4-dihydro-2H,15′H-spiro[naphthalene-1,22′-[20]oxa[13]thia[1,14]diazatetracyclo[14.7.2.0^3,6.0^19,24]pentacosa [8,16,18,24]tetraen]-15′-one 13′,13′-dioxide] | 0.267 | 329 | – |
| C[C@@H]1/C=C/[C@H](O)[C@@H]2CC[C@H]2CN2C[C@@]3(CCCc4cc(Cl)ccc43)COc3ccc(cc32)C(=O)NS(=O)(=O)[C@H](C)C1 [Example 1015, (1S,3′R,6′R,7′S,8′E,10′S,12′R)-6-chloro-7′-hydroxy-10′,12′-dimethyl-3,4-dihydro-2H,15′H-spiro[naphthalene-1,22′-[20]oxa[13]thia[1,14]diazatetracyclo[14.7.2.0^3,6.0^19,24]pentacosa [8,16,18,24]tetraen]-15′-one 13′,13′-dioxide] | 0.275 | 235 | – |
| CO[C@H]1/C=C/[C@H](C)C[C@@H](C)S(=O)(=O)NC(=O)c2ccc3c(c2)N(C[C@@H]2CC[C@H]21)C[C@@]1(CCCc2cc(Cl)ccc21)CO3 [Example 1016, (1S,3′R,6′R,7′S,8′E,10′R,12′R)-6-chloro-7′-methoxy-10′,12′-dimethyl-3,4-dihydro-2H,15′H-spiro[naphthalene-1,22′-[20]oxa[13]thia[1,14]diazatetracyclo[14.7.2.0^3,6.0^19,24]pentacosa [8,16,18,24]tetraen]-15′-one 13′,13′-dioxide] | 0.483 | 291 | – |
